The source of these data is ChEMBL document CHEMBL5608141, “Identification of compartment-specific drug sensitivities in CRC organoid-stroma co-cultures” (2024).

What all share (format): functional, Homo sapiens
Common to all, as to set-up: dose or concentration left out as unconfirmed

Assay [1] has as its system Colon cancer organoid. The experiment in a line: Identification of compartment-specific drug sensitivities in O20 CRC organoid-stroma F20 CAF co-cultures. Organoid is transduced with Lucferase2-P2A-EGFP lentivirus, fibroblast with Renilla-dsRed lentivirus. Dual-Glo Luciferase assay is used to report viability data.
The subject of assay [2] is Colon cancer organoid. In words: Identification of compartment-specific drug sensitivities in O14 CRC organoid-stroma F14 CAF co-cultures. Organoid is transduced with Lucferase2-P2A-EGFP lentivirus, fibroblast with Renilla-dsRed lentivirus. Dual-Glo Luciferase assay is used to report viability data.
The subject of assay [3] is Colon cancer organoid. In words: Identification of compartment-specific drug sensitivities in O06 CRC organoid-stroma F06 CAF co-cultures. Organoid is transduced with Lucferase2-P2A-EGFP lentivirus, fibroblast with Renilla-dsRed lentivirus. Dual-Glo Luciferase assay is used to report viability data.
Setting [4] is: Transduced with Lucferase2-P2A-EGFP lentivirus.
Setting [5] is: Transduced with Renilla-dsRed lentivirus.

With `Cn1cncc1[C@@](O)(COc1ccc(C#N)cc1-c1ccc(OC(F)(F)F)cc1)c1ccc(C#N)cc1` [A-108], the “Cell Viability” value in assay [1] (setting [4]) was 89.1467%; in assay [1] (setting [5]) it was 110.638%; in assay [2] (setting [4]), 94.7328%; in assay [2] (setting [5]), 120.862%; in assay [3] (setting [4]) it was 61.6996%; in assay [3] (setting [5]), 139.827%.

In the case of `Cc1cc(CN)cc(C)c1-c1ncn(C)c1-c1cncn1C`, the “Cell Viability” value is reported as 127.793% in assay [1] (setting [4]); 117.48% in assay [1] (setting [5]); 88.8994% in assay [2] (setting [4]); 94.9152% in assay [2] (setting [5]); 121.461% in assay [3] (setting [4]); 141.638% in assay [3] (setting [5]).

In the case of `CCc1ccccc1C(=O)Nc1n[nH]c2c(C)c(F)c(C3C(C#N)=C(C)N(C)C(C)=C3C#N)cc12` [BAY-3827], the “Cell Viability” value in assay [1] (setting [4]) worked out at 74.4041%; in assay [1] (setting [5]) it was 157.673%; in assay [2] (setting [4]), 97.9341%; in assay [2] (setting [5]) it was 94.3175%; in assay [3] (setting [4]), 43.7855%; in assay [3] (setting [5]), 108.902%.

`CCOC(=O)CCNc1cc(N2CCc3ccccc3CC2)nc(-c2cccnc2)n1`: the “Cell Viability” value amounted to 102.371% in assay [1] (setting [4]); 131.422% in assay [1] (setting [5]); 87.4597% in assay [2] (setting [4]); 97.4259% in assay [2] (setting [5]); 130.773% in assay [3] (setting [4]); 124.082% in assay [3] (setting [5]).

With `Cn1c(C2(NC(=O)c3ccc(NCC4CCCCC4)nc3)CCC2)nc2ccc(/C=C/C(=O)O)cc21` [BI 7656], the “Cell Viability” value in assay [1] (setting [4]) was determined as 93.1126%; in assay [1] (setting [5]) it was 134.723%; in assay [2] (setting [4]) it was 93.219%; in assay [2] (setting [5]) it was 83.8542%; in assay [3] (setting [4]), 95.6503%; in assay [3] (setting [5]), 130.646%.

As for `N#CC1(c2ccccn2)CCN(Cc2cc(C(=O)O)c(=O)n3ccccc23)CC1` [MSD-M1PAM], the “Cell Viability” value worked out at 53.4383% in assay [1] (setting [4]); 117.537% in assay [1] (setting [5]); 84.139% in assay [2] (setting [4]); 110.281% in assay [2] (setting [5]); 12.088% in assay [3] (setting [4]); 188.309% in assay [3] (setting [5]).

Consider `Cc1sc2c(c1C)C(c1ccc(Cl)cc1)=N[C@@H](CC(=O)OC(C)(C)C)c1nnc(C)n1-2`, for which the “Cell Viability” value amounted to 11.1793% in assay [1] (setting [4]); 145.881% in assay [1] (setting [5]); 31.858% in assay [2] (setting [4]); 201.171% in assay [2] (setting [5]); 24.0633% in assay [3] (setting [4]); 301.325% in assay [3] (setting [5]).

Regarding `O=C(Nc1ccc(-c2ccnc(Nc3ccc(N4CCOCC4)cc3)n2)cc1)[C@@H]1CCCN1`, the “Cell Viability” value was found to be 139.273% in assay [1] (setting [4]); 76.0213% in assay [1] (setting [5]); 129.164% in assay [2] (setting [4]); 79.5845% in assay [2] (setting [5]); 100.254% in assay [3] (setting [4]); 96.014% in assay [3] (setting [5]).

As to `COc1ccc(COc2ccc(Cc3cnc(N)nc3N)cc2OC)cc1` [GW632580X], the “Cell Viability” value was determined as 200.298% in assay [1] (setting [4]); 84.9331% in assay [1] (setting [5]); 144.194% in assay [2] (setting [4]); 102.086% in assay [2] (setting [5]); 84.8428% in assay [3] (setting [4]); 83.7807% in assay [3] (setting [5]).

`Cc1c(C(=O)Nc2ccc(Oc3ccnc4[nH]cc(-c5ccccc5)c34)c(F)c2)c(=O)n(-c2ccc(F)cc2)n1C`: the “Cell Viability” value in assay [1] (setting [4]) was determined as 225.47%; in assay [1] (setting [5]), 22.9382%; in assay [2] (setting [4]), 62.1416%; in assay [2] (setting [5]) it was 28.9447%; in assay [3] (setting [4]), 73.6786%; in assay [3] (setting [5]), 56.2803%.

Take `CCNC(=O)c1cc2c(-c3cc(C(C)(C)O)ccc3Oc3c(C)cc(F)cc3C)cn(C)c(=O)c2[nH]1` [ABBV-744]: the “Cell Viability” value in assay [1] (setting [4]) came out at 58.4777%; in assay [1] (setting [5]) it was 215.224%; in assay [2] (setting [4]) it was 77.9517%; in assay [2] (setting [5]), 194.681%; in assay [3] (setting [4]) it was 91.6049%; in assay [3] (setting [5]) it was 287.135%.

Turning to `CNCCN1CCC(c2cc(CN(C)C(=O)c3cccc(Oc4ccccc4)c3)ccn2)CC1`, the “Cell Viability” value turned out to be 67.5507% in assay [1] (setting [4]); 133.473% in assay [1] (setting [5]); 146.315% in assay [2] (setting [4]); 111.036% in assay [2] (setting [5]); 83.6812% in assay [3] (setting [4]); 129.007% in assay [3] (setting [5]).

For the compound `Cc1cccc(-c2cnc3occ(-c4ccc(C(=O)O)c(C5CCCC5)c4)c3c2)c1`, the “Cell Viability” value in assay [1] (setting [4]) worked out at 88.6258%; in assay [1] (setting [5]), 133.429%; in assay [2] (setting [4]), 146.067%; in assay [2] (setting [5]) it was 87.0815%; in assay [3] (setting [4]) it was 94.5335%; in assay [3] (setting [5]) it was 126.561%.

Take `O=C(NC[C@H](O)CN1CCc2ccccc2C1)c1ccnc(NC2CCC2)c1`: the “Cell Viability” value in assay [1] (setting [4]) is 43.0801%; in assay [1] (setting [5]), 143.569%; in assay [2] (setting [4]) it was 42.6769%; in assay [2] (setting [5]), 91.2933%; in assay [3] (setting [4]), 33.1368%; in assay [3] (setting [5]) it was 110.399%.

For `CN1CCN(c2cnc3c(C4CCN(C(=O)c5ccc(OC(F)(F)F)cc5N)CC4)ncnc3c2)CC1` [BAY-885], the “Cell Viability” value was determined as 78.4575% in assay [1] (setting [4]); 141.163% in assay [1] (setting [5]); 91.6174% in assay [2] (setting [4]); 96.8328% in assay [2] (setting [5]); 128.922% in assay [3] (setting [4]); 132.533% in assay [3] (setting [5]).

In the case of `CCN(Cc1ccc(Cl)cc1)c1ncc(C(=O)NCCCN2CCCC2=O)c(NC2CCCC2)n1`, the “Cell Viability” value is given as 67.2116% in assay [1] (setting [4]); 104.655% in assay [1] (setting [5]); 127.363% in assay [2] (setting [4]); 88.0275% in assay [2] (setting [5]); 93.3549% in assay [3] (setting [4]); 154.26% in assay [3] (setting [5]).

With `CC1=C(C#N)C(c2ccc3[nH]nc(C)c3c2)C(C#N)=C(C)N1` [BAY-474], the “Cell Viability” value in assay [1] (setting [4]) came to 81.7867%; in assay [1] (setting [5]), 102.241%; in assay [2] (setting [4]), 60.4688%; in assay [2] (setting [5]) it was 119.272%; in assay [3] (setting [4]), 116.723%; in assay [3] (setting [5]), 162.783%.

On to `CO[C@H]1CC[C@H](CNc2ccc(S(=O)(=O)NC(=O)c3ccc(N4CCN(CC5=C(c6ccc(Cl)cc6)CC(C)(C)CC5)CC4)cc3Oc3cnc4[nH]ccc4c3)cc2[N+](=O)[O-])CC1` [A-1211212], for which the “Cell Viability” value in assay [1] (setting [4]) is on record as 16.4932%; in assay [1] (setting [5]) it was 159.244%; in assay [2] (setting [4]) it was 54.5485%; in assay [2] (setting [5]), 97.9178%; in assay [3] (setting [4]), 8.693%; in assay [3] (setting [5]) it was 108.861%.

Take `Cn1c(-c2csc(C3CCN(CC4=NC5N=CC=CC5N4)CC3)n2)nc2ccccc21` (stereo not given) [BAY-070]: the “Cell Viability” value in assay [1] (setting [4]) was 42.0794%; in assay [1] (setting [5]) it was 84.0468%; in assay [2] (setting [4]), 72.3778%; in assay [2] (setting [5]) it was 60.078%; in assay [3] (setting [4]), 29.934%; in assay [3] (setting [5]) it was 49.5381%.

Take `C[C@]1(O)C[C@@H](c2nc(-c3ccc4ccc(-c5ccccc5)nc4c3)c3c(N)nccn32)C1` [LINSITINIB]: the “Cell Viability” value amounted to 60.6188% in assay [1] (setting [4]); 65.9185% in assay [1] (setting [5]); 56.8923% in assay [2] (setting [4]); 65.041% in assay [2] (setting [5]); 53.0716% in assay [3] (setting [4]); 100.619% in assay [3] (setting [5]).

Regarding `CN(C(=O)c1cnn2cccnc12)c1cc2c(cc1N1CCOCC1)C(=O)N(C[C@@H](F)C(C)(C)O)C2`, the “Cell Viability” value is 85.5909% in assay [1] (setting [4]); 89.8275% in assay [1] (setting [5]); 98.5166% in assay [2] (setting [4]); 101.353% in assay [2] (setting [5]); 93.6773% in assay [3] (setting [4]); 65.3185% in assay [3] (setting [5]).

For `N#CC1(c2ccccn2)CCN(Cc2cc(C(=O)N3CCCC3)c(=O)n3ccccc23)CC1` [MSD-M1PAM-NC], the “Cell Viability” value in assay [1] (setting [4]) was 103.159%; in assay [1] (setting [5]) it was 109.338%; in assay [2] (setting [4]), 93.1425%; in assay [2] (setting [5]), 88.6945%; in assay [3] (setting [4]) it was 85.4848%; in assay [3] (setting [5]) it was 72.6928%.

As to `CC(C)S(=O)(=O)c1ccc2nccc(Nc3ccc4scnc4c3)c2c1`, the “Cell Viability” value came to 147.82% in assay [1] (setting [4]); 98.2209% in assay [1] (setting [5]); 128.948% in assay [2] (setting [4]); 98.4032% in assay [2] (setting [5]); 84.0973% in assay [3] (setting [4]); 95.5761% in assay [3] (setting [5]).

Take `CO[C@@H](C)c1c(Nc2ccc([C@H](N(C)C(=O)C3CCS(=O)(=O)CC3)C(F)(F)F)cc2)cnc2cc(Cl)nn12` [NVS-MALT1]: the “Cell Viability” value in assay [1] (setting [4]) is recorded as 88.0389%; in assay [1] (setting [5]), 98.697%; in assay [2] (setting [4]), 78.8073%; in assay [2] (setting [5]), 82.3583%; in assay [3] (setting [4]), 54.3511%; in assay [3] (setting [5]) it was 83.5282%.

For `Cn1cc(-c2ccc3occ(-c4cccc(-c5ccncc5)c4)c3n2)cn1`, the “Cell Viability” value is 65.7439% in assay [1] (setting [4]); 132.411% in assay [1] (setting [5]); 87.0505% in assay [2] (setting [4]); 83.2978% in assay [2] (setting [5]); 70.7683% in assay [3] (setting [4]); 132.305% in assay [3] (setting [5]).
